Tested on: 855422-203-R-J1-PDC complex spheroid viability
Test: Anticancer human tumor 855422-203-R-J1-PDC patient-derived bladder carcinoma cell line growth inhibition
Conditions: for IC50: curve of first compound; for viability, T/C: stronger effect = lower value
Source text: Multicellular complex tumor spheroid response to LSD1 Inhibitor Iadademstat in combination with a variety of drugs and investigational agents in selected tumor cell lines
The current study was undertaken to assess response to LSD1 inhibitors in combination with standard-of-care drugs and investigational agents in solid tumor complex spheroid models as well as in the K-562 leukemia. Complex spheroids include a stromal component modeled by human endothelial cells (HUVEC) and fibroblasts modeled by human mesenchymal stem cells (MSCs). The concentration ranges selected for each drug and investigational agent were based upon clinically achievable concentrations if the clinical Cmax of the agent was known.
Compounds. The drugs and investigational agents used in this study are listed on Table 1. All of the agents used, including staurosporine (NSC755774) and gemcitabine (NSC613327), were obtained from the Developmental Therapeutics Program, NCI. FDA-approved anticancer drugs are available from the NCI at http://dtp.nci.nih.gov/branches/dscb/oncology_drugset_explanation.html. Drugs and investigational agents were >95% pure by proton nuclear magnetic resonance (NMR) and liquid chromatography/mass spectrometry (LC/MS). Stock solutions were prepared at 400x in DMSO, stored at -70 degrees C, and diluted in fresh medium prior to their use. The final concentration of DMSO in cell culture wells never exceeded 0.25% (v/v). The FDA-approved anticancer drug set is available from the Developmental Therapeutics Program at https://dtp.cancer.gov/organization/dscb/obtaining/available_plates.htm. All drugs and investigational agents were tested over a range starting from a high concentration at or near the clinical Cmax and decreasing in half-log increments. If the clinical Cmax for an agent had not been determined, the highest concentration tested was 10 microM.
Cell Lines. The patient-derived cancer cell (PDC) lines: 292921-168-R-J2-PDC, K24384-001-R-PDC, and 521955-158-R2-J5-PDC pancreatic carcinomas, 556581-035-R-J1 ovarian carcinoma, 324938-238-R-J1-PDC, 855422-203-R-J1-PDC and 883617-216-R-J1-PDC urothelial bladder carcinomas, 743489-274-T-PDC renal cell carcinoma, 138582-R-J1 Merkel cell tumor, K60290-347-R-J1 and K57222-313-R-J1-PDC glioblastomas, 653999-131-R-J2-PDC, LG0703-F948-PDC, and 349418-098-R-PDC non-small cell lung carcinomas, 885512-296-R-J2-PDC, 171881-019-R-J1-PDC breast carcinomas and 186277-243-T-J2-PDC and 233499-124-R-J2-PDC colon carcinomas were obtained from the NCI Patient-Derived Models Repository (PDMR, https://pdmr.cancer.gov). The established cell lines NCI/ADR-RES (RRID:CVCL_14520 and OVCAR-5 (RRID:CVCL_1628) ovarian carcinomas, 786-O (RRID:CVCL_1051) and A498 (RRID:CVCL_A498) renal cell carcinoma, NCI-H211 (ATCC, cat. CRL-5824; RRID:CVCL_1529), NCI-H196 (ATCC, cat. CRL-5823, RRID:CVCL_1509), SW 1271 (ATCC, cat. CRL-2177, RRID:CVCL_1716) and NCI-H1876 (ATCC, cat. CRL-5902, RRID:CVCL_1503) small cell lung carcinomas, MDA-MB-231 (RRID:CVCL_0062) and MDA-MB-468 (RRID:CVCL_0419)breast carcinomas (10-12). Pooled donor human umbilical vein endothelial cells (HUVEC, Lonza, cat. CC-2519) and human mesenchymal stem cells (hMSC, Lonza, cat. PT-2501) were purchased from Lonza (Walkersville, MD).
Cell Culture. All cells were maintained in an incubator at 37 degrees C and 5% CO2 with 95% humidity. The PDC lines were cultured according to standard operating procedures established by the NCI PDMR (https://pdmr.cancer.gov). Briefly all PDCs were thawed and cultured in Matrigel-coated flasks prepared with a working solution of 1X Ham's F-12 nutrient mix, without supplementation (Invitrogen, Waltham, MA, cat. 11765054), 100 U/mL penicillin-streptomycin (Invitrogen, cat. 15140122), and 2.5% Matrigel (Corning Inc., Corning, NY, cat. 354248) for the first three passages. […]

[1] = second compound 0.1 µM, first compound 0.000949 µM
[2] = second compound 0.1 µM, first compound 0.003 µM
[3] = second compound 0.1 µM, first compound 0.00949 µM
[4] = second compound 0.1 µM, first compound 0.03 µM
[5] = second compound 0.1 µM, first compound 0.0949 µM
[6] = second compound 0.1 µM, first compound 0.3 µM
[7] = second compound 0.316 µM, first compound 0.000949 µM
[8] = second compound 0.316 µM, first compound 0.003 µM
[9] = second compound 0.316 µM, first compound 0.00949 µM
[10] = second compound 0.316 µM, first compound 0.03 µM
[11] = second compound 0.316 µM, first compound 0.0949 µM
[12] = second compound 0.316 µM, first compound 0.3 µM
[13] = second compound 1 µM, first compound 0.000949 µM
[14] = second compound 1 µM, first compound 0.003 µM
[15] = second compound 1 µM, first compound 0.00949 µM
[16] = second compound 1 µM, first compound 0.03 µM
[17] = second compound 1 µM, first compound 0.0949 µM
[18] = second compound 1 µM, first compound 0.3 µM
[19] = second compound 3.16 µM, first compound 0.000949 µM
[20] = second compound 3.16 µM, first compound 0.003 µM
[21] = second compound 3.16 µM, first compound 0.00949 µM
[22] = second compound 3.16 µM, first compound 0.03 µM
[23] = second compound 3.16 µM, first compound 0.0949 µM
[24] = second compound 3.16 µM, first compound 0.3 µM
[25] = second compound 10 µM, first compound 0.000949 µM
[26] = second compound 10 µM, first compound 0.003 µM
[27] = second compound 10 µM, first compound 0.00949 µM
[28] = second compound 10 µM, first compound 0.03 µM
[29] = second compound 10 µM, first compound 0.0949 µM
[30] = second compound 10 µM, first compound 0.3 µM
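Also: drug exposure lasted 7 days starting on day 3 after seeding.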
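For viability, T/C in this document: luminescence viability as percent of DMSO vehicle wells = 100%.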

Row | SMILES | IC50 (second compound 0.1 µM) | IC50 (second compound 0.316 µM) | IC50 (second compound 1 µM) | IC50 (second compound 3.16 µM) | IC50 (second compound 10 µM) | viability, T/C [1] | viability, T/C [2] | viability, T/C [3] | viability, T/C [4] | viability, T/C [5] | viability, T/C [6] | viability, T/C [7] | viability, T/C [8] | viability, T/C [9] | viability, T/C [10] | viability, T/C [11] | viability, T/C [12] | viability, T/C [13] | viability, T/C [14] | viability, T/C [15] | other results
1 | Nc1ccn(C2OC(CO)C(O)C2(F)F)c(=O)n1 (stereo not given) + NC1CCC(NC2CC2c2ccccc2)CC1 | 4.38 nM | 5.79 nM | 6.14 nM | 6.83 nM | 8.48 nM | 90.5% | 53.3% | 39.5% | 34.7% | 28.7% | 24.4% | 86.6% | 58.9% | 41.3% | 34.8% | 30% | 20.6% | 88.5% | 57.2% | 45.4% | viability, T/C [16]: 37.9%; viability, T/C [17]: 32.5%; viability, T/C [18]: 28.6%; viability, T/C [19]: 79.2%; viability, T/C [20]: 63.1%; viability, T/C [21]: 43.5%; viability, T/C [22]: 35.1%; viability, T/C [23]: 26.8%; viability, T/C [24]: 24.7%; viability, T/C [25]: 82.1%; viability, T/C [26]: 55.9%; viability, T/C [27]: 52%; viability, T/C [28]: 39.9%; viability, T/C [29]: 27.6%; viability, T/C [30]: 22.3%
2 | CCc1c2c(nc3ccc(O)cc13)-c1cc3c(c(=O)n1C2)COC(=O)[C@]3(O)CC + NC1CCC(NC2CC2c2ccccc2)CC1 | < 0.949 nM | < 0.949 nM | < 0.949 nM | < 0.949 nM | < 0.949 nM | 21.1% | 16% | 11.9% | 9.64% | 6.14% | 2.74% | 22.6% | 19.5% | 12.3% | 9.27% | 5.32% | 5.13% | 23.6% | 17.3% | 13.2% | viability, T/C [16]: 8.94%; viability, T/C [17]: 7.12%; viability, T/C [18]: 2.09%; viability, T/C [19]: 22.1%; viability, T/C [20]: 15.5%; viability, T/C [21]: 11.4%; viability, T/C [22]: 9.39%; viability, T/C [23]: 4.78%; viability, T/C [24]: 2.98%; viability, T/C [25]: 20.7%; viability, T/C [26]: 12.2%; viability, T/C [27]: 8.28%; viability, T/C [28]: 8.25%; viability, T/C [29]: 4.8%; viability, T/C [30]: 1.43%

Source: PubChem BioAssay AID1918943 (Molecular Pharmacology Branch, DTP, NCI, 2023)
